Measured values published in patent US12329755B2, “Bromodomain inhibitors to target therapy-resistant cancer” (University of Tennessee Research Foundation, priority 2019, dated 2025).

How the values were obtained:
GBM cells = experiment: overall statements on GBM cell death and sensitization to TMZ; type: cell-based
Source text: The syntheses of two exemplary PA BRIs, referred to herein as YH-IV-073 (or IV-073), and YH-IV-077 (or IV-077), as well as of PFI-3 (also referred to herein as YH-IV-081), are shown in Scheme 2, below. As shown in Scheme 2, commercially available tert-butyloxycarbonyl (BOC)-protected amine 1 is contacted with 2-bromopyridine (2) to form intermediate 3. The protecting group can be removed (e.g., via hydrolysis) to give the corresponding amine 4. Compound 4 can be coupled with a carboxylic acid (5, 6, or 7) to afford target YH-IV-073, YH-IV-077 and YH-IV-081, respectively. […] These analogs will provide greater insight into the importance of substitution of the A ring.
The synthetic route shown in Scheme 3, below, was used to synthesize new analogs with different substituents in the 2-position of the A-ring, such as YH-IV-085. As shown in Scheme 3, a commercially available 1-phenylprop-2-yn-1-one (e.g., 8 or 9) can be reacted with BOC-protected amine compound 1 to afford a BOC-protected intermediate (e.g., 10 or 11), which can be hydrolyzed to provide corresponding deprotected intermediate (12 or 13). The intermediates can be coupled with the 2-bromopyridine (2) to yield target compounds (e.g., 14 or YH-IV-085), respectively. YH-IV-085 is believed to be the first PFI-3 analog prepared without a 2-hydroxy moiety in the A-ring.

X16 BTIC = X16 BTIC mouse flank xenografts; type: in vivo, mice; details: combined with TMZ, 8 weeks
Protocol: FIG. 1F is a graph showing the effect of temozolomide (TMZ) on the tumorigenicity of control (black portion of bars) and Brahma-related gene-1-knock-down (BRG1-KD) (grey portion of bars) brain-tumor initiating cells (BTICs) after injection of 10^6 tumor cells into the flanks of immunodeficient mice. Live animal imaging preformed at weekly intervals. After confirming tumor initiation by live animal imaging, mice were treated with TMZ by interperitoneal (IP) injection (10 milligrams per kilogram (mg/kg) on alternate days). The reduction in tumor volume was calculated at 1 week (left) and 2 weeks (right) post-treatment. *p≤0.05.
FIG. 5 is a graph showing the effect of Brahma-related gene-1 bromodomain inhibitors (BRIs), PFI-3 and the PFI-3 analogs (PAs) IV-073, IV-077, and IV-085, on the anticancer activity of temozolomide (TMZ) on brain-tumor initiating-cell (BTIC) tumor growth. BTICs (10^6 cells) from X16 glioblastoma were injected into the flanks of immunodeficient mice. After confirming tumor initiation by live animal imaging, mice were treated with PFI-3 or a PA (0.5 microgram per mouse (μg/mouse)) and TMZ (0.25 mg/mouse) by intrarperitoneal (IP) injection on alternate days. The reduction in tumor volume was calculated at 2 weeks post-treatment.
(§1) BRG1 loss sensitizes BTICs to TMZ in vitro and in vivo: Although the alkylating agent TMZ is front-line chemotherapy in the treatment of GBM, a significant clinical problem is intrinsic or adaptive resistance to TMZ.^63 To evaluate TMZ sensitivity, GBM6 or X16 BTICs were treated with 300 μM or 500 μM TMZ, and cell proliferation was determined. […] Since BRG1 has been implicated in DNA double-strand break repair,^65-67 it was hypothesized that BRG1 loss in BTICs would sensitize BTICs to TMZ. […] To determine whether BRG1-KD sensitized BTICs to TMZ in vivo, animal studies were conducted with control (scrambled shRNA) and BRG1-KD X16 BTICs injected into the flanks of NSG mice. After tumor initiation was confirmed by live animal imaging, mice were treated with TMZ. […] Thus, despite X16 BRG1-KD BTICs producing larger tumors, the tumors were sensitized to TMZ therapy.
In contrast, all mice with single drug treatment had to be euthanized because the tumors had reached […] by 3 weeks post-treatment.

[1] = target: T1, GFP-tagged bromodomain of BRG1 (GFP-BRG1 BRD) (Homo sapiens, UniProt P51532); experiment: nuclear localization of fluorescently tagged BRG1 bromodomain in MT330 GBM cells; type: cell-based; details: PFI-3 10 or 30 μM; IV-073 5, 10 or 30 μM; compared to DMSO
T1 construct: a fluorescently tagged bromodomain of BRG1 expressed in MT330 GBM cells; expressed in transfected cells; host or cells: MT330 GBM cells
Source text: FIG. 4 is a series of fluorescence microscopy images showing the effects of Brahma-related gene-1 bromodomain inhibitors (BRIs) on the nuclear localization of a green fluorescent protein (GFP)-tagged bromodomain of Brahma-related gene-1 (GFP-BRG1 BRD).
The effects of PFI-3 and its analogs on the nuclear localization of a fluorescently tagged bromodomain of BRG1 expressed in MT330 GBM cells was studied. In the control samples, the fluorescent bromodomain is localized to the nucleus. However, an inhibitor displaces it from the nucleus and the fluorescence signal markedly decreases because it is degraded in the cytoplasm.

X16 BTICs = experiment: cell proliferation of X16 BTICs; type: cell-based, human; details: PFI-3 alone
Protocol: FIG. 1A is a pair of graphs showing the effect of temozolomide (TMZ) on the proliferation of brain-tumor initiating cells (BTICs) obtained from two independent glioblastoma tumors, GBM6 (left) and X16 (right). Relative proliferation is shown for cells treated with 300 micromolar (μM) TMZ or 600 μM TMZ, as well as for untreated cells. *p≤0.05.
as §1, with “therapy. […]” for “therapy.”

BTICs = details: cited from earlier work
embryonic stem cell = details: cited from earlier work

T1 sequence (P51532 1453-1564 limits assumed): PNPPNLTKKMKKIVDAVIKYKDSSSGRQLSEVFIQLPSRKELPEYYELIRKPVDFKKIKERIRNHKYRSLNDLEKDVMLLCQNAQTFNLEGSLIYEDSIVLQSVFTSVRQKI

O=C(/C=C/N1C[C@H]2C[C@@H]1CN2c1ccccn1)c1ccccc1O [PFI-3, (E)-1-(2-hydroxyphenyl)-3-((1R,4R)-5-(pyridin-2-yl)-2,5-diazabicyclo[2.2.1]heptan-2-yl)prop-2-en-1-one]
sensitizing GBM cells to DNA alkylation by TMZ (GBM cells; also in cells resistant to DNA alkylation agents): capable of sensitizing GBM cells | GBM cell death (GBM cells; used alone): do not cause GBM cell death | tumors after treatment for 8 weeks (X16 BTIC): less dramatic effect | displacement of the BRG1 bromodomain from the nucleus [1]: displaces the BRG1 bromodomain from the nucleus | effect on BTIC proliferation (X16 BTICs): only a slight growth inhibitory effect | effect on BTIC proliferation (BTICs; PFI-3 alone): little effect on BTIC proliferation | stemness of BTICs (BTICs): inhibits the stemness of BTICs | sensitization of BTICs to DNA alkylating agents (BTICs; in vitro): sensitizes BTICs to DNA alkylating agents | embryonic stem cell phenotype (embryonic stem cell): inhibits the embryonic stem cell phenotype
